The text below walks through data of patent US20230234936A1, “COMPOUND FOR TARGETING AND DEGRADING PROTEIN, AND PREPARATION METHOD THEREFOR AND USE THEREOF” (SHANGHAI LEADINGTAC PHARMACEUTICAL CO., LTD., priority 2020, published 2023).

Molecules are shown by their SMILES.

Assay [1] addresses T1, IRAK4 protein in THP-1 cells (Homo sapiens, UniProt Q9NWZ3).
T1 construct: endogenous in cells; host or cells: THP-1
T1 sequence (Q9NWZ3 1-460): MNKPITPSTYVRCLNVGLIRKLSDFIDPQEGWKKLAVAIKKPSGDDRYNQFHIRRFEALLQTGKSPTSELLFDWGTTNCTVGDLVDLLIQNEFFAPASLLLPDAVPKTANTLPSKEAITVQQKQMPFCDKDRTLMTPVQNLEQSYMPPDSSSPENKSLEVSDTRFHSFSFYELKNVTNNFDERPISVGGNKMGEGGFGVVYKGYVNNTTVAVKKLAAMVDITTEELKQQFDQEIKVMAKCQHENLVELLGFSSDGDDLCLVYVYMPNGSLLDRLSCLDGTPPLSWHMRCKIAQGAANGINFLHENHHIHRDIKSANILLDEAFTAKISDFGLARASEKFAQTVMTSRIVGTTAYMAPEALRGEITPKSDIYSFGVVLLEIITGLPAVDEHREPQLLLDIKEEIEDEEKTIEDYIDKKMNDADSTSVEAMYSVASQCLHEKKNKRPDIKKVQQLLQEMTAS
Kind of assay: Degradation of IRAK4 in THP-1 cells (Western blot). In kind it is cell-based. Conditions: 24 hours, compound 1-3000 nM. The essentials: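 THP-1 cells (5×10^5/well) treated 24 h with compound at 1–3000 nM final. IRAK4 in lysates quantified by Western blot, normalized to internal reference and compared with control to give degradation rate; DC50 and Dmax from nonlinear fit of log concentration.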

The target of another assay is T2, IKZF1 in L363 cells (Homo sapiens, UniProt Q13422+Q96SW2).
T2 construct: endogenous in cells; host or cells: L363
Kind of assay: Degradation of IKZF1 in L363 cells (Western blot). In kind it is cell-based. The conditions noted are these: 1000 nM, 16 hours. As for the experimental part:
(§1) The 24-well cell culture plate was inoculated with 0.95 mL L363 cells (Nanjing Co-bioer) per well with a cell density of 6×10^5 cells/well. The cell plate was placed in a 5% carbon dioxide incubator and cultured at 37° C. for 8 hours, then 50 μL of compound solution was added. The final concentration of the compound was 1000 nM. After continuing to culture for 16 hours, the cells were collected into a 1.5 mL centrifuge tube and centrifuged at 3000 rpm and 4° C. for 5 minutes. Cell precipitation was cleaned twice with 1×DPBS, resuspended cells were lysed with 100 μL lysate (cell lysate was Western and IP cell lysate (Beyotime), supplemented with 1 mM mixture of phenylmethylsulfonyl fluoride and protease inhibitor (Beyotime)), left on ice for 30 minutes, then centrifuged at 14000 g at 4° C. for 10 minutes, and the supernatant was taken to detect IKZF1 and IKZF3 protein level by Western blot.
(§2) The total protein concentration in the supernatant of cell lysis was determined by BCA protein quantitative kit (Tiangen). According to the concentration of total protein detected by BCA, the supernatant was adjusted to 0.2 μg/μL with PBS and 5× SDS-PAGE protein loading buffer (Beyotime), bathed in water at 100° C. for 10 minutes, then placed in ice bath for 5 minutes, centrifuged at 14000 g and 4° C. for 5 minutes, and then collected as WB loading sample. Prefabricated glue (KeyGEN) was used for protein electrophoresis with a loading amount of 10 μL (total protein 2 μg). After Tris-MOPS-SDS electrophoresis solution (Adamas), 120V constant pressure electrophoresis was performed. After electrophoresis, the protein on the adhesive strip was transferred to PVDF membrane with a constant current of […] for 50 minutes. After the membrane was transferred, the membrane was incubated in 5% bovine serum albumin solution for 2 hours at room temperature. After blocking, PVDF membranes were incubated with IKZF1 primary antibody (CST) and IKZF3 primary antibody (Abcam) overnight at 4°, the membranes were washed with TBST buffer (2.4 g Tris, 8.8 g NaCl, 1.5 mL Tween 20, pH adjusted to 7.4, constant volume to IL) for 30 minutes, incubated with secondary antibody (Abcam) for 2 hours at room temperature, finally incubated with Clarity Western ECL Substrate(BIO-RAD) for 5 minutes for luminescence development, chemiluminescence imaging system (Clinx, chemiScope 6200 Touch) for development and protein mapping photography. The protein map was analyzed by Clinx chemiluminescence analysis software for grayscale values. Using the formula: grayscale correction value=(target protein grayscale value/corresponding internal reference grayscale value)×10^3, the grayscale correction value of each sample was calculated. The degradation rate was calculated by comparing with the grayscale correction value of the control group.

The target in a further assay is T3, IKZF3 in L363 cells (Homo sapiens, UniProt Q96SW2+Q9UKT9).
T3 construct: endogenous in cells; host or cells: L363
Put plainly: Degradation of IKZF3 in L363 cells (Western blot). In kind it is cell-based. The conditions noted are these: 1000 nM, 16 hours. As for the experimental part: as §1, §2

A further assay concerns the target T4, IRAK4 kinase (Homo sapiens, UniProt Q9NWZ3).
T4 sequence (Q9NWZ3 1-460): T1 sequence (Q9NWZ3 1-460)
Put plainly: IRAK4 kinase activity test (KinEASE-STK S1 HTRF kit). In kind it is biochemical. Conditions: 2.5 nM kinase, 1 μM biotinylated polypeptide substrate, 7 μM ATP, 37° C. 120 min. The essentials: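 Compound in DMSO, serially diluted to 10000–0.038 nM final, incubated with 2.5 nM kinase, 1 μM biotinylated peptide substrate and 7 μM ATP at 37° C for 120 min. Eu-anti-phospho-Ser/Thr antibody plus streptavidin-XL665 stopped the reaction (1 h RT). HTRF 665/620 nm ratio gave % inhibition versus control; IC50 from nonlinear log-concentration fit.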

Assay [2] relates to Interleukin-6 (IL-6) in LPS-induced human PBMC. Put plainly: Cytokine secretion of LPS-induced human PBMC, IL-6 AlphaLISA detection. Conditions: inhibition of IL-6, compound 1 hour or 20 hours, then LPS 100 ng/mL 5 hours. In kind it is cell-based. As for the experimental part: Frozen human PBMC (Milestone, PB010C) was resuspended to RPMI 1640 medium (Gibco, A1049101) after resuscitation, supplemented with 10% fetal bovine serum (Gibco, 10099141), 100 U/mL penicillin and 100 μg/mL streptomycin (Gibco, 15140122). On the same day, 150 μL of PBMC was spread in each well of a 96-well transparent cell plate (Labserv, 310109008), so that the cell density was 2×10^5 cells/well. Then 50 μL diluted compound solution was added to the corresponding cell-covered wells to make the final concentration of the compound in the range of 0.026-10000 nM. The final concentration of DMSO was 0.25%. After the drug-treated cell plate was cultured at 37° C. for 1 hour or 20 hours in a 5% CO2 incubator, 10 μL LPS (0111:B4) (Sigma, L4391) was added with a final concentration of 100 ng/mL. The cell plate was again placed in a 5% CO2 incubator at 37° C. for 5 hours, centrifuged at 2000 rpm for 10 minutes, and 100 μL cell supernatant was taken from each well and transferred to a new 96-well transparent cell plate for cytokine concentration test, which was frozen at −80° C. to be tested.
The concentration of IL-6 in the supernatant of LPS-induced human PBMC cells was determined using interleukin-6 (IL-6) AlphaLISA detection kit (PerkinElmer, AL223 C).
According to the product instructions, IL-6 standard solutions with different concentrations were prepared in the concentration range of […]. 2 μL of IL-6 standard solution at various concentrations and the cell supernatant sample to be tested were taken, respectively added to white 384 well plates (PerkinElmer, 6007299), then a mixed solution of 8 μL of 5× anti-IL-6 receptor beads (final concentration: 10 μg/mL) and biotin-labeled anti-IL-6 antibody (final concentration 1 nM) was added to each well, and incubated at 23° C. for 60 minutes. Finally, 10 μL of 2× streptavidin-labeled donor beads (final concentration: 40 μg/mL) were added to each well and incubated at 23° C. for 30 minutes in the absent of light. After the incubation, the AlphaLISA signal value was determined in the AlphaScreen standard setting mode on the microplate reader EnVision(PerkinElmer, 2105). The standard curve was drawn by the AlphaLISA signal value of each concentration IL-6 standard solution, and then based on the corresponding concentration on the standard curve for the AlphaLISA signal value of the sample to be tested, the IL-6 concentration of each cell lysis supernatant was determined. Compared with the IL-6 concentration of the control group, the inhibition rate of the compound at each concentration was calculated, and then IC50 value of the compound was calculated by fitting the nonlinear curve with the logarithmic concentration-inhibition rate by GraphPad Prism 7.

T2 sequence (Q13422 whole entry): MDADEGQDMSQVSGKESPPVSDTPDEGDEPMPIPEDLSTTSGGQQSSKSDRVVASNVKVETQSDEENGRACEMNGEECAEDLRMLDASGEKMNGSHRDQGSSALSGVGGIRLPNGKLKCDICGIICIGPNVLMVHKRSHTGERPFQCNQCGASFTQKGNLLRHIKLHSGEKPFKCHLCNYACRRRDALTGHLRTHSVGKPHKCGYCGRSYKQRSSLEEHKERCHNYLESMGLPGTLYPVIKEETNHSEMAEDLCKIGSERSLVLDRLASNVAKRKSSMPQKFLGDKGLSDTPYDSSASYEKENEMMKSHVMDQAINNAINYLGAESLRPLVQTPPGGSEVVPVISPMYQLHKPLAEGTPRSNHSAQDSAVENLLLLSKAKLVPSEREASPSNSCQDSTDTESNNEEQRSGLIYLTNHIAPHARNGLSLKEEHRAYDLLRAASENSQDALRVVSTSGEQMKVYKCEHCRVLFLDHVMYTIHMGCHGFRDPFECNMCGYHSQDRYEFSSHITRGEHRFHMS
T2 sequence (Q96SW2 whole entry): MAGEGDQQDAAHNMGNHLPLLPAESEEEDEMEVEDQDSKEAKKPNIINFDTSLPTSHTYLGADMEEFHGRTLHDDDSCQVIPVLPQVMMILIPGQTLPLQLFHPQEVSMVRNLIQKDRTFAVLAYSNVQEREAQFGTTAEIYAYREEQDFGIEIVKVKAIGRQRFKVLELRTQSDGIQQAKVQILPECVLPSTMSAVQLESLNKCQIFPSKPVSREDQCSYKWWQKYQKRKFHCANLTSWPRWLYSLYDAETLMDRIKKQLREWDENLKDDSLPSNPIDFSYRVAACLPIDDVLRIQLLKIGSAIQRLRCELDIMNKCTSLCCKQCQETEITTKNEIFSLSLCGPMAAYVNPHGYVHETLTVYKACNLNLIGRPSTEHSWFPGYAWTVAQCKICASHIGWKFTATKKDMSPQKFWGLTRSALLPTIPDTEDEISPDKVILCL
T2 sequence (Q16531 whole entry partner): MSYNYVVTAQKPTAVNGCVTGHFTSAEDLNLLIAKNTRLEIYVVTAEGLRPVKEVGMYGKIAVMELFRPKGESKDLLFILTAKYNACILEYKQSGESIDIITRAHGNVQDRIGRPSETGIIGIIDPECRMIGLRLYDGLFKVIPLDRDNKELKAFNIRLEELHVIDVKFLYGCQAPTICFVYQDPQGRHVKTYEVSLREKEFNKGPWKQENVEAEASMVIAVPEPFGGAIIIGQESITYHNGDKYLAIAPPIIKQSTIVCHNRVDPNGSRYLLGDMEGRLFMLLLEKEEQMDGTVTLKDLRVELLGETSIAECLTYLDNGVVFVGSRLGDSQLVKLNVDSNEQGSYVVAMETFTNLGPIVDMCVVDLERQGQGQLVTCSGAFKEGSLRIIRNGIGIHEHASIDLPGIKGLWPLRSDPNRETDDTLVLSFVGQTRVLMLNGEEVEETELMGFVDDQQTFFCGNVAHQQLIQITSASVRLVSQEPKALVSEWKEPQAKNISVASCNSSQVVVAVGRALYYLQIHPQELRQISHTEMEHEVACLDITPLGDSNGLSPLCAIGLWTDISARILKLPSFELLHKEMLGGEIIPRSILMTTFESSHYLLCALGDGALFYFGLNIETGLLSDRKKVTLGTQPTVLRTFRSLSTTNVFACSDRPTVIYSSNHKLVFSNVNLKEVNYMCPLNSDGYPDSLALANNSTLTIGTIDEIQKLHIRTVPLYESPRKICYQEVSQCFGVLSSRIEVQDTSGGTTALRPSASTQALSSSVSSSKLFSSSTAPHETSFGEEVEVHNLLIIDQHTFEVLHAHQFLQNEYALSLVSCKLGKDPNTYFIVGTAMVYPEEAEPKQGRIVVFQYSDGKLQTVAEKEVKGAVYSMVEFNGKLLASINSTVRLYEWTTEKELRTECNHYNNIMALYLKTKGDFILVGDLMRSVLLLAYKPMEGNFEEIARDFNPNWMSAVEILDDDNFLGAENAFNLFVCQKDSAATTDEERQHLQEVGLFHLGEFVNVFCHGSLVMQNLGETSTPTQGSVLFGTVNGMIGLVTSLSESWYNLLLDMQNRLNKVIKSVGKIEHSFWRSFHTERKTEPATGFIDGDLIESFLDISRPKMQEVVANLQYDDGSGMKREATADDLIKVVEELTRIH
T3 sequence (Q9UKT9 whole entry): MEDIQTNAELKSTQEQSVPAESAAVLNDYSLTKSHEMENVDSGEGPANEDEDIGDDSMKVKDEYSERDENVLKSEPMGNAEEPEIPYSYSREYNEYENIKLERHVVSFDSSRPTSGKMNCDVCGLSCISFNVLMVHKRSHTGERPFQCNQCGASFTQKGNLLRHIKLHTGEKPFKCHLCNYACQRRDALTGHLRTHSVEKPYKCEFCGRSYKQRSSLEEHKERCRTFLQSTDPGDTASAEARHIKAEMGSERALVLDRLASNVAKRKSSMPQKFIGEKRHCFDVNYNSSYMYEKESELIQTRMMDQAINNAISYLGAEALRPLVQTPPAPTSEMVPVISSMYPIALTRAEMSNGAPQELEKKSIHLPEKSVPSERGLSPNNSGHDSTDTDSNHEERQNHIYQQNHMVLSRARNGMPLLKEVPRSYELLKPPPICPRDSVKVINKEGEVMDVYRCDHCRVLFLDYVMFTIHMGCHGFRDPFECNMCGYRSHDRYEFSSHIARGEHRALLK
T3 sequence (Q96SW2 whole entry): as the sequence (Q96SW2 whole entry) above
T3 sequence (Q16531 whole entry partner): as the sequence (Q16531 whole entry partner) above

In assay [1], `CC(C)(O)c1cc2nn(C3CCN(CCC4CCC5(CC4)CCN(C(=O)c4ccc(F)c(N6CCC(=O)NC6=O)c4)CC5)CC3)cc2cc1NC(=O)c1cccc(C(F)(F)F)n1` [Example 34, N-(2-(1-(2-(3-(3-(2,4-dioxotetrahydro-pyrimidin-1 (2H)-yl)-4-fluoro-benzoyl)-3-azaspiro[5.5]undec-9-yl)ethyl)piperidin-4-yl)-6-(2-hydroxyprop-2-yl)-2H-indazol-5-yl)-6-(trifluoro-methyl) pyridinecarbox-amide] yielded a DC50 of 2.5 nM and a Dmax of 98.1%. The molecule further returned an IKZF1 degradation rate on IKZF1 in L363 cells of 10.2 ± 1.8%. In addition, the IKZF3 degradation rate at IKZF3 in L363 cells is recorded as −2.2 ± 2.8%. The molecule further came in with an IC50 against IRAK4 kinase of 16.5 nM.

In assay [1], `CC(C)(O)c1cc2nn(C3CCN(CCC4CCC5(CC4)CCN(C(=O)c4ccc(F)c(C6CCC(=O)NC6=O)c4)CC5)CC3)cc2cc1NC(=O)c1cccc(C(F)(F)F)n1` (centres unmarked) [Example 40, N-(2-(1-(2-(3-(3-(2,6-dioxopiperidin-3-yl)-4-fluoro-benzoyl)-3-azaspiro [5.5]undec-9-yl)ethyl)piperidin-4-yl)-6-(2-hydroxyprop-2-yl)-2H-indazol-5-yl)-6-(trifluoro-methyl) pyridinecarbox-amide] gave a DC50 of 4.8 nM and a Dmax of 98%. At IKZF1 in L363 cells, this molecule registered an IKZF1 degradation rate of 53.8 ± 2.0%. For the same molecule, on IKZF3 in L363 cells, the IKZF3 degradation rate is reported as 9.8 ± 2.0%. Further, the IC50 at IRAK4 kinase was determined as 35.1 nM.

In turn, `Nc1cccc2c1C(=O)N(C1CCC(=O)NC1=O)C2=O` (centres unmarked) [Pomalidomide] returned an IKZF1 degradation rate on IKZF1 in L363 cells of 99.7 ± 0.2%. Further, the IKZF3 degradation rate on IKZF3 in L363 cells is reported as 98.6 ± 0.6%.

In assay [1], `COc1cc2nn([C@H]3CC[C@H](CN(C)CCC4CCN(C(=O)c5ccc(Cl)c(N6CCC(=O)NC6=O)c5)CC4)CC3)cc2cc1NC(=O)c1cccc(C(F)(F)F)n1` [Example 49, N-(2-((1r,4r)-4-(((2-(1-(4-chloro-3-(2,4-dioxotetrahydro-pyrimidin-1 (2H)-yl)benzoyl)piperidin-4-yl)ethyl) (methyl)amino)methyl)cyclohexyl)-6-methoxy-2H-inda-zol-5-yl)-6-(tri-fluoromethyl) pyridinecarbox-amide] displayed a DC50 of 1.8 nM and a Dmax of 99.2%. In addition, the IC50 in assay [2] was found to be 3.7 nM. This molecule returned an IC50 against IRAK4 kinase of 3.4 nM.

As for `COc1cc2nn(C3CCN(CCN4CCC5(CC4)CCN(C(=O)c4ccc(OC)c(N6CCC(=O)NC6=O)c4)CC5)CC3)cc2cc1NC(=O)c1cccc(C(F)(F)F)n1` [Example 1, N-(2-(1-(2-(9-(3-(2,4-dioxotetrahydropyrimidin-1 (2H)-yl)-4-methoxybenzoyl)-3,9-diazaspiro[5.5]undec-3-yl)ethyl)piperidin-4-yl)-6-methoxy-2H-indazol-5-yl)-6-(trifluoromethyl)-2-pyridinecarboxamide], in assay [1], the DC50 is 3 nM. Moreover, in assay [1], the Dmax was determined as 94.6%. Further, the results for the IC50 (in assay [2]; against IRAK4 kinase) were 4.9 nM and 2.5 nM, respectively.
